From patent publication US20190185865A1, “USE OF PROKARYOTIC TRANSCRIPTIONAL ACTIVATORS AS METABOLITE BIOSENSORS IN EUKARYOTIC CELLS” (Danmarks Tekniske Universitet, priority 2016, published 2019)

Assays:
ArgP = target: T1, ArgP (Escherichia coli, UniProt P0A8S1); assay: L-arginine induction of ArgP-mediated GFP expression in yeast; assay type: cell-based; details: 30 mM L-arginine
T1 construct: expressed in transfected cells; host or cells: Saccharomyces cerevisiae CEN.PK113-5A; REV1p or TDH3p, chromosomal integration (TISNO-66/-73)
Experimental: (§1) Events were analyzed using FlowJo software (TreeStar Inc.).
(§2) The genetic device developed in this study represents to the best of our knowledge the first example of transplanting a prokaryotic transcriptional activator into a eukaryotic chassis and successfully using it to activate gene expression without the need for modifying the protein beyond codon optimization. […] To test the generality of the biosensor design for onboarding other small-molecule binding transcriptional activators as biosensors in yeast we selected four other candidates from the LTTR family; FdeR from Herbaspirillum seropedicae, PcaQ from Sinorhizobium meliloti, ArgP from Escherichia coli, and MdcR from Klebsiella pneumonia, with co-inducers naringenin, protocatechuic acid (PCA), L-arginine, and malonic acid, respectively. In this proof-of-principle study we selected the four candidates based on a minimal set of information, including knowledge about operator sequences, experimental evidence for ligand-inducible control of target operons, and their mode-of-action within native chassis (ie. activation, FIG. 1). Furthermore all of these metabolites can passively diffuse across the yeast plasma membrane, with the exception of malonic acid, which requires the expression of the dicarboxylic acid transporter MAE1 from Schizosaccharomyces pombe. […]

MdcR = assay: Malonic acid induction of MdcR-mediated GFP expression in yeast; assay type: cell-based; details: MdcR from TDH3 promoter, MAE1 transporter; 10 mM malonic acid
Experimental: as §1, §2

[1] = Solubility in growth medium; assay type: physicochemical; details: aqueous buffer, read-out: concentrations of naringenin soluble in growth medium
FdeR = assay: Naringenin induction of FdeR-mediated GFP expression in yeast; assay type: cell-based, Saccharomyces cerevisiae
Source text: Strains, chemicals and media. Saccharomyces cerevisiae CEN.PK102-5B (MATa ura3-52 his3Δ1 leu2-3/112 MAL2-8^c SUC2), CEN.PK113-5A (MATa, trp1 his3Δ1 leu2-3/112 MAL2-8^c SUC2) and CEN.PK113-7D (wild type, MATa MAL2-8^c SUC2) strains were obtained from Peter Kotter (Johann Wolfgang Goethe-University Frankfurt, Germany). In principal any other yeast strains may be used, such as one obtained from public repository EuroScarf. EasyClone plasmids used in this work are described in Jensen, N. B. et al. EasyClone: method for iterative chromosomal integration of multiple genes in Saccharomyces cerevisiae. FEMS Yeast Res. 14, 238-48 (2014). Escherichia coli strain DH5a was used as a host for cloning and plasmid propagation. The chemicals and Pfu TURBO DNA polymerase were commercially obtained (Sigma-Aldrich and Agilent Technologies Inc., respectively). All acids used were >97% in purity. S. cerevisiae cells were grown at 30° C. in synthetic complete medium as well as drop-out media and agar plates were prepared using pre-mixed drop-out powders (Sigma-Aldrich). Mineral medium was freshly prepared as described previously. For all media containing diacids, 1.4 mM of the individual diacids were dissolved in mineral medium and pH adjusted to 4.5 before sterile filtration. For CCM several dilutions were made to examine the performance of the CCM biosensor. For naringenin, mineral medium was supplemented with 0, 0.05, 0.10 or 0.20 mM naringenin, dissolved in ethanol, the final ethanol concentration for each medium was 2% (v/v), and the final pH of the medium was adjusted to 6.0. E. coli cells were grown at 37° C. in Luria-Bertani (LB) medium supplemented with 100 μg/mL ampicillin.
as §1
The genetic device developed in this study represents to the best of our knowledge the first example of transplanting a prokaryotic transcriptional activator into a eukaryotic chassis and successfully using it to activate gene expression without the need for modifying the protein beyond codon optimization. […]

yeast transcriptome = assay: Transcriptome analysis (RNA-seq) of yeast with or without BenM^H110R, F211V, Y286N; assay type: cell-based, Saccharomyces cerevisiae; details: 24 h cultivation in the presence of CCM
Experimental: To study the impact of ligand-induced BenM on genome-wide gene expression, triplicate cultures of strains MeLS0138 and MeLS0284 were grown for 24 h at 30° C. in 50 ml mineral medium pH 4.5 with 1.4 mM CCM. […] Briefly, 15 ml samples of the six cultures were harvested into a pre-chilled 50 ml tube with crushed ice and then immediately centrifuged at 4° C., 4000×rpm for 5 min. Subsequently, the pellets were resuspended in 2 ml of RNAlater® Solution (Ambion, Life Technologies) and incubated on ice for 1 h. Next, cells were pelleted by centrifugation (12,000×rpm for 10 s) and transferred to liquid nitrogen, and stored at −80° C. until further analysis. Total RNA extraction was performed using RNeasy® Mini Kit (QIAGEN). […] The quantity and quality of the RNA samples were measured using Qubit 2.0 Fluorometer using the Qubit RNA BR Assay (Thermo Fisher Scientific) and Agilent 2100 Bioanalyzer using the RNA 6000 Nano Kit (Agilent Technologies), respectively. For sequencing we used 3 μg of total RNA as input for TruSeq® Stranded mRNA Sample Preparation kit prior to sequencing on the MiSeq System using MiSeq Reagent Kit v3 150 cycles at a 2×75 bp read length configuration (Illumina) obtaining 38 M reads. […]

209 bp_CYC1p_T1 promoter = assay: LTTR-mediated activation of GFP expression from 209 bp_CYC1p_T1 reporter promoter in yeast, without ligand; assay type: cell-based, Saccharomyces cerevisiae; details: LTTR expressed from weak REV1p promoter
Experimental: as §1, §2

[2] = tested on: 209 bp_CYC1p_T1 promoter with MdcO or ArgO; assay: Cross-reactivity of LTTRs ArgP and MdcR with operators MdcO and ArgO (flow cytometry); assay type: cell-based, Saccharomyces cerevisiae; details: ArgP and MdcR with 209 bp_CYC1p_T1 carrying MdcO or ArgO
Source text: Many of the characterized LTTRs regulate operons by binding prototypic LTTR box patterns 5′-T-N11-A-3′ and 5′-TTA-N7/8-GAA-3′. In addition to transcriptional orthogonality (FIG. 3b), we therefore further tested if individual LTTRs would cross-react with operators for another LTTR. For this purpose, we expressed LTTRs ArgP and MdcR together with the 209 bp_CYC1p_T1 promoter with operators for MdcR (herein MdcO) or ArgP (herein ArgO) driving the expression of GFP. As controls we tested GFP expression from 209 bp_CYC1p_T1 promoter with MdcO or ArgO without expression of LTTRs. […] This is in agreement with another study on cross-reactivity between promoter and transcriptional regulators of the TetR family, and the fact that LTTR residues in both the conserved N-terminal DNA-binding domains and the divergent EBDs are important for DNA-binding.

Molecule: N=C(N)NCCC[C@H](N)C(=O)O [L-arginine]
- ligand-inducible increase in GFP expression (ArgP; ArgP expression controlled by REV1p): significant ligand-inducible increase in GFP expression
- induction of GFP expression upon addition of cognate inducer (ArgP; ArgP from TDH3 promoter): further induce GFP expression

Molecule: O=C(O)CC(=O)O [malonic acid]
- induction of GFP expression upon addition of cognate inducer (MdcR): further induce GFP expression

Molecule: O=C1C[C@@H](c2ccc(O)cc2)Oc2cc(O)cc(O)c21 [naringenin]
- solubility [1]: < 200 µM
- induction of GFP expression upon addition of cognate inducer (FdeR; FdeR from TDH3 promoter, 0.2 mM naringenin): further induce GFP expression
- maximum increase in GFP expression (FdeR; FdeR from strong TDH3 promoter, 0.2 mM naringenin, 24 h): 1.7 fold
- induction of GFP expression (FdeR; FdeR from weak REV1 promoter, any of the tested naringenin concentrations): did not support induction of GFP expression

B1: BenM^H110R, F211V, Y286N (protein, UniProt O68014 1-304, looked up, variant H110R F211V Y286N)
HTH-type transcriptional …: MELRHLRYFVAVVEEQSFTKAADKLCIAQPPLSRQIQNLEEELGIQLLERGSRPVKTTPEGHFFYQYAIKLLSNVDQMVSMTKRIASVEKTIRIGFVGSLLFGLLPRIIRLYRQAHPNLRIELYEMGTKAQTEALKEGRIDAGFGRLKISDPAIKRTLLRNERLMVAVHASHPLNQMKDKGVHLNDLIDEKILLYPSSPKPNFSTHVMNIVSDHGLEPTKINEVREVQLALGLVAAGEGISLVPASTQSIQLFNLSYVPLLDPDAITPIYIAVRNMEESTYIYSLNETIRQIYAYEGFTEPPNW
- average GFP transcript abundance, strain MeLS0284 compared to strain MeLS0138 (yeast transcriptome): approximately 27 fold
- decrease in expression level of TCS3 (yeast transcriptome; P<0.05, >2-fold cut-off): 2.3 ×

B2: ArgP: LTTR transcriptional activator from Escherichia coli, co-inducer L-arginine (protein, UniProt P0A8S1 1-297, looked up)
HTH-type transcriptional …: MKRPDYRTLQALDAVIRERGFERAAQKLCITQSAVSQRIKQLENMFGQPLLVRTVPPRPTEQGQKLLALLRQVELLEEEWLGDEQTGSTPLLLSLAVNADSLATWLLPALAPVLADSPIRLNLQVEDETRTQERLRRGEVVGAVSIQHQALPSCLVDKLGALDYLFVSSKPFAEKYFPNGVTRSALLKAPVVAFDHLDDMHQAFLQQNFDLPPGSVPCHIVNSSEAFVQLARQGTTCCMIPHLQIEKELASGELIDLTPGLFQRRMLYWHRFAPESRMMRKVTDALLDYGHKVLRQD
- activation of GFP expression compared to yeast cells without expression of an LTTR (209 bp_CYC1p_T1 promoter): 2.2 ×
- cross-reaction of LTTR with operator for another LTTR [2]: specificity between LTTR transcriptional activators and their inferred operator
